The results in this text go back to BindingDB's records for doi:10.1016/j.bmcl.2011.11.036 (Pfizer, 2011).

The nature of this assay: Inhibition of mouse Sky kinase assessed as inhibition of src substrate phosphorylation by ELISA.
In the case of `O=C(c1cc2cc(Cl)ccc2[nH]1)N1C[C@]2(CCN(C3CCCNC3)C2)c2ccccc21` (stereo partly drawn), the IC50 is 1040 nM.
The value for `O=C(c1cc2cc(Cl)ccc2[nH]1)N1C[C@]2(CCN(C3CCNC3)C2)c2ccccc21` (stereo partly drawn) was 495 nM; that for `O=C(c1cc2cc(Cl)ccc2[nH]1)N1C[C@]2(CCN(C3CCNCC3)C2)c2ccccc21` was 8660 nM; that for `O=C(c1cc2cc(F)ccc2[nH]1)N1C[C@]2(CCN(C3CNC3)C2)c2ccccc21` was 1810 nM.
The value for `CN1CCC(N2CC[C@]3(CN(C(=O)c4cc5cc(F)ccc5[nH]4)c4ccccc43)C2)CC1` was 2880 nM; that for `O=C(c1cc2cc(F)ccc2[nH]1)N1C[C@]2(CCN(CC3CCCNC3)C2)c2ccccc21` (stereo partly drawn) was 4410 nM.
The same measure for `C[C@@H]1CCC(N2CC[C@]3(CN(C(=O)c4cc5ccccc5[nH]4)c4ccccc43)C2)CN1` (stereo partly drawn): 246 nM; for `C[C@@H]1CCC(N2CC[C@]3(CN(C(=O)c4cc5ccc(F)cc5[nH]4)c4ccccc43)C2)CN1` (stereo partly drawn): 189 nM.
For the compound `O=C(c1cc2ccc(F)cc2[nH]1)N1C[C@]2(CCN(C3CCNC3)C2)c2ccccc21` (stereo partly drawn), the IC50 was 598 nM.
The same measure for `CCN1CCCC(N2CC[C@]3(CN(C(=O)c4cc5cc(F)ccc5[nH]4)c4ccccc43)C2)C1` (stereo partly drawn): 4930 nM.
Turning to `O=C(c1cc2cc(F)ccc2[nH]1)N1C[C@]2(CCN(C3CCCCC3)C2)c2ccccc21`, the IC50 came to 27900 nM.
Turning to `Cc1ccc(N2CC[C@@]3(C2)CN(C(=O)c2cc4cc(F)ccc4[nH]2)c2ccccc23)cn1`, the IC50 came out at 37800 nM.
The value for `Cc1ccc2[nH]c(C(=O)N3C[C@]4(CCN(C5CCNC5)C4)c4ccccc43)cc2c1` (stereo partly drawn) was 811 nM; that for `COc1ccc2[nH]c(C(=O)N3C[C@]4(CCN(C5CCNC5)C4)c4ccccc43)cc2c1` (stereo partly drawn) was 501 nM; that for `COc1ccc2cc(C(=O)N3C[C@]4(CCN(C5CCNC5)C4)c4ccccc43)[nH]c2c1` (stereo partly drawn) was 843 nM.
The value for `NC(=O)c1ccc2cc(C(=O)N3C[C@]4(CCN(C5CCNC5)C4)c4ccccc43)[nH]c2c1` (stereo partly drawn) was 2200 nM; that for `N#Cc1ccc2cc(C(=O)N3C[C@]4(CCN(C5CCNC5)C4)c4ccccc43)[nH]c2c1` (stereo partly drawn) was 1130 nM.
With `O=C(c1cc2c(Cl)cccc2[nH]1)N1C[C@]2(CCN(C3CCNC3)C2)c2ccccc21` (stereo partly drawn), the IC50 amounted to 560 nM.

For orientation: IC50 means the midpoint of a concentration-inhibition curve.
